From patent publication US20260224584A1 (priority 2023, published 2026)
Structures can show the parent of a compound that is named as a salt.

System: Human WB (90%) CD69
Experiment: Human WB (90%) CD69
Type: cell-based
Conditions: read-out: Human WB (90%) CD69 IC50 (nM); human whole blood (90%), CD69 readout

Compared with `Cc1cc(C)nc(Nc2cc(-c3ccc(N4CCN(C(C)C)CC4)cc3)cc3c2nc(C2CCS(=O)(=O)CC2)n3C)c1` [Example 41, 4-(4-((4,6-dimethylpyridin-2-yl)amino)-6-(4-(4-isopropylpiperazin-1-yl)phenyl)-1-methyl-1H-benzo[d]imidazol-2-yl)tetrahydro-2H-thiopyran 1,1-dioxide. TFA], `Cc1cc(C)nc(Nc2cc(-c3ccc(N4CCN(C(C)C)CC4)cc3)cc3c2nc(C2CCC2)n3C)c1` [Example 34, 2-cyclobutyl-N-(4,6-dimethylpyridin-2-yl)-6-(4-(4-isopropylpiperazin-1-yl)phenyl)-1-methyl-1H-benzo[d]imidazol-4-amine, TFA] is 4.6-fold higher in IC50: 128 nM for the first, 587 nM for the second. The first is the more potent here.

Compared with `Cc1nc2c(NC3CCN(S(C)(=O)=O)CC3)cc(-c3ccc(N4CCN(C(C)C)CC4)cc3)cc2n1C` [Example 13, 6-(4-(4-isopropylpiperazin-1-yl)phenyl)-1,2-dimethyl-N-(1-(methylsulfonyl)piperidin-4-yl)-1H-benzo[d]imidazol-4-amine], `Cc1nc2c(NC3CCN(C4COC4)CC3)cc(-c3ccc(N4CCN(C(C)C)CC4)cc3)cc2n1C` [Example 57, 6-(4-(4-isopropylpiperazin-1-yl)phenyl)-1,2-dimethyl-N-(1-(oxetan-3-yl)piperidin-4-yl)-1H-benzo[d]imidazol-4-amine] is 6.5-fold lower in IC50: 1220 nM for the first, 188 nM for the second. The second is the more potent here.

`Cc1nc2c(Nc3ncccn3)cc(-c3ccc(N4CCN(C(C)C)CC4)cc3)cc2n1C` [Example 21, 6-(4-(4-isopropylpiperazin-1-yl)phenyl)-1,2-dimethyl-N-(pyrimidin-2-yl)-1H-benzo[d]imidazol-4-amine] and `Cc1nc2c(Nc3cnccn3)cc(-c3ccc(N4CCN(C(C)C)CC4)cc3)cc2n1C` [Example 20, 6-(4-(4-isopropylpiperazin-1-yl)phenyl)-1,2-dimethyl-N-(pyrazin-2-yl)-1H-benzo[d]imidazol-4-amine] are within 1.5-fold of each other in IC50: 1640 nM for the first, 1270 nM for the second.

`CC(C)N1CCN(c2ccc(-c3cc(NCc4ccc(CN5CCOCC5)cc4)c4nc(C5COC5)n(C)c4c3)cc2)CC1` [Example 46, 6-(4-(4-isopropylpiperazin-1-yl)phenyl)-1-methyl-N-(4-(morpholinomethyl)benzyl)-2-(oxetan-3-yl)-1H-benzo[d]imidazol-4-amine] and `CC(C)N1CCN(c2ccc(-c3cc(NCc4ccc(CN5CCOCC5)cc4)c4nc(C5CCS(=O)(=O)CC5)n(C)c4c3)cc2)CC1` [Example 43, 4-(6-(4-(4-isopropylpiperazin-1-yl)phenyl)-1-methyl-4-((4-(morpholinomethyl)benzyl)amino)-1H-benzo[d]imidazol-2-yl)tetrahydro-2H-thiopyran 1,1-dioxide, 2 TFA] are within 1.5-fold of each other in IC50: 534 nM for the first, 396 nM for the second.

`CC(C)N1CCN(c2ccc(-c3cc(Nc4ccc(N5CCOCC5)nn4)c4nc(-c5ccc(S(C)(=O)=O)cc5)n(C)c4c3)cc2)CC1` [Example 37, 6-(4-(4-isopropylpiperazin-1-yl)phenyl)-1-methyl-2-(4-(methylsulfonyl)phenyl)-N-(6-morpholinopyridazin-3-yl)-1H-benzo[d]imidazol-4-amine, TFA] and `Cc1nc2c(Nc3ccc(N4CCOCC4)nn3)cc(-c3ccc(N4CCN(C(C)C)CC4)cc3)cc2n1C` [Example 17, 6-(4-(4-isopropylpiperazin-1-yl)phenyl)-1,2-dimethyl-N-(6-morpholinopyridazin-3-yl)-1H-benzo[d]imidazol-4-amine, TFA] are within 1.5-fold of each other in IC50: 167 nM for the first, 137 nM for the second.

Compared with `CC(C)N1CCN(c2ccc(-c3cc(NCCN4CCOCC4)c4nc(C5CCS(=O)(=O)CC5)n(C)c4c3)cc2)CC1` [Example 42, 4-(6-(4-(4-isopropylpiperazin-1-yl)phenyl)-1-methyl-4-((2-morpholinoethyl)amino)-1H-benzo[d]imidazol-2-yl)tetrahydro-2H-thiopyran 1,1-dioxide], `CC(C)N1CCN(c2ccc(-c3cc(NCCN4CCOCC4)c4nc(C5CCOCC5)n(C)c4c3)cc2)CC1` [Example 47, 6-(4-(4-isopropylpiperazin-1-yl)phenyl)-1-methyl-N-(2-morpholinoethyl)-2-(tetrahydro-2H-pyran-4-yl)-1H-benzo[d]imidazol-4-amine, 2 TFA] is 5.1-fold lower in IC50: 925 nM for the first, 181 nM for the second. The second is the more potent here.

Going from `Cc1nc2c(N3CCC(CNC4COC4)CC3)cc(-c3ccc(N4CCN(C(C)C)CC4)cc3)cc2n1C` [Example 60, N-((1-(6-(4-(4-isopropylpiperazin-1-yl)phenyl)-1,2-dimethyl-1H-benzo[d]imidazol-4-yl)piperidin-4-yl)methyl)oxetan-3-amine] to `Cc1nc2c(NCCN3CCC(F)(F)CC3)cc(-c3ccc(N4CCN(C(C)C)CC4)cc3)cc2n1C` [Example 7, N-(2-(4,4-difluoropiperidin-1-yl)ethyl)-6-(4-(4-isopropylpiperazin-1-yl)phenyl)-1,2-dimethyl-1H-benzo[d]imidazol-4-amine], the IC50 rises from 535 nM to 923 nM (1.7-fold).

Compared with `CC(C)N1CCN(c2ccc(-c3cc(NC4CCN(C5COC5)CC4)c4nc(-c5ccc(S(C)(=O)=O)cc5)n(C)c4c3)cc2)CC1` [Example 62, 6-(4-(4-isopropylpiperazin-1-yl)phenyl)-1-methyl-2-(4-(methylsulfonyl)phenyl)-N-(1-(oxetan-3-yl)piperidin-4-yl)-1H-benzo[d]imidazol-4-amine, 2 TFA], `CC(C)N1CCN(c2ccc(-c3cc(NCCN4CCN(S(C)(=O)=O)CC4)c4nc(-c5ccc(S(C)(=O)=O)cc5)n(C)c4c3)cc2)CC1` [Example 28, 6-(4-(4-isopropylpiperazin-1-yl)phenyl)-1-methyl-2-(4-(methylsulfonyl)phenyl)-N-(2-(4-(methylsulfonyl)piperazin-1-yl)ethyl)-1H-benzo[d]imidazol-4-amine, 2 TFA] is 7.3-fold higher in IC50: 111 nM for the first, 807 nM for the second. The first is the more potent here.

Going from `COc1cccc(CCNc2cc(-c3ccc(N4CCN(C(C)C)CC4)cc3)cc3c2nc(C)n3C)c1OC` [Example 8, N-(2,3-dimethoxyphenethyl)-6-(4-(4-isopropylpiperazin-1-yl)phenyl)-1,2-dimethyl-1H-benzo[d]imidazol-4-amine, TFA] to `Cc1nc2c(NCCc3ccc(S(C)(=O)=O)cc3)cc(-c3ccc(N4CCN(C(C)C)CC4)cc3)cc2n1C` [Example 10, 6-(4-(4-isopropylpiperazin-1-yl)phenyl)-1,2-dimethyl-N-(4-(methylsulfonyl)phenethyl)-1H-benzo[d]imidazol-4-amine], the IC50 falls from 1560 nM to 813 nM (1.9-fold). The second is the more potent here.

`Cc1ccc(Nc2cc(-c3ccc(N4CCN(C(C)C)CC4)cc3)cc3c2nc(C)n3C)cn1` [Example 15, 6-(4-(4-isopropylpiperazin-1-yl)phenyl)-1,2-dimethyl-N-(6-methylpyridin-3-yl)-1H-benzo[d]imidazol-4-amine] and `Cc1cc(Nc2cc(-c3ccc(N4CCN(C(C)C)CC4)cc3)cc3c2nc(C)n3C)cnc1C` [Example 19, N-(5,6-dimethylpyridin-3-yl)-6-(4-(4-isopropylpiperazin-1-yl)phenyl)-1,2-dimethyl-1H-benzo[d]imidazol-4-amine] are within 1.5-fold of each other in IC50: 526 nM for the first, 452 nM for the second.

Compared with `CC(C)N1CCN(c2ccc(-c3cc(N(C)CCN(C)C)c4nc(-c5ccc(S(C)(=O)=O)cc5)n(C)c4c3)cc2)CC1` [Example 2, N1-(6-(4-(4-isopropylpiperazin-1-yl)phenyl)-1-methyl-2-(4-(methylsulfonyl)phenyl)-1H-benzo[d]imidazol-4-yl)-N^1,N^2,N^2-trimethylethane-1,2-diamine], `Cc1nc2c(NCc3ccc(S(C)(=O)=O)cc3)cc(-c3ccc(N4CCN(C(C)C)CC4)cc3)cc2n1C` [Example 11, 6-(4-(4-isopropylpiperazin-1-yl)phenyl)-1,2-dimethyl-N-(4-(methylsulfonyl)benzyl)-1H-benzo[d]imidazol-4-amine] is 4.6-fold higher in IC50: 199 nM for the first, 918 nM for the second.

First: CC(C)N1CCN(c2ccc(-c3cc(NCCN4CCOCC4)c4ncn(C)c4c3)cc2)CC1 [Example 39, 6-(4-(4-isopropylpiperazin-1-yl)phenyl)-1-methyl-N-(2-morpholinoethyl)-1H-benzo[d]imidazol-4-amine, 2 TFA]
Second: CC(C)c1nc2c(NCCN3CCOCC3)cc(-c3ccc(N4CCN(C(C)C)CC4)cc3)cc2n1C [Example 25, 2-isopropyl-6-(4-(4-isopropylpiperazin-1-yl)phenyl)-1-methyl-N-(2-morpholinoethyl)-1H-benzo[d]imidazol-4-amine, 2 TFA]
The IC50 of the first is 1.9-fold lower: 283 nM for the first, 530 nM for the second.

`CC(C)N1CCN(c2ccc(-c3cc(NCc4cccc(S(C)(=O)=O)c4)c4nc(-c5ccc(S(C)(=O)=O)cc5)n(C)c4c3)cc2)CC1` [Example 55, 6-(4-(4-isopropylpiperazin-1-yl)phenyl)-1-methyl-N-(3-(methylsulfonyl)benzyl)-2-(4-(methylsulfonyl)phenyl)-1H-benzo[d]imidazol-4-amine] and `Cc1nc2c(NCc3cccc(S(C)(=O)=O)c3)cc(-c3ccc(N4CCN(C(C)C)CC4)cc3)cc2n1C` [Example 12, 6-(4-(4-isopropylpiperazin-1-yl)phenyl)-1,2-dimethyl-N-(3-(methylsulfonyl)benzyl)-1H-benzo[d]imidazol-4-amine] are within 1.5-fold of each other in IC50: 1130 nM for the first, 971 nM for the second.

Going from `Cc1nc2c(Nc3ccc(N4CCOCC4)nc3)cc(-c3ccc(N4CCN(C(C)C)CC4)cc3)cc2n1C` [Example 18, 6-(4-(4-isopropylpiperazin-1-yl)phenyl)-1,2-dimethyl-N-(6-morpholinopyridin-3-yl)-1H-benzo[d]imidazol-4-amine] to `COc1ccnc(Nc2cc(-c3ccc(N4CCN(C(C)C)CC4)cc3)cc3c2nc(C)n3C)c1` [Example 23, 6-(4-(4-isopropylpiperazin-1-yl)phenyl)-N-(4-methoxypyridin-2-yl)-1,2-dimethyl-1H-benzo[d]imidazol-4-amine, TFA], the IC50 falls from 728 nM to 370 nM (2-fold). The second is the more potent here.

First: CC(C)N1CCN(c2ccc(-c3cc(NC4CCN(S(C)(=O)=O)CC4)c4nc(C5CCN(S(C)(=O)=O)CC5)n(C)c4c3)cc2)CC1 [Example 50, 6-(4-(4-isopropylpiperazin-1-yl)phenyl)-1-methyl-N,2-bis(1-(methylsulfonyl)piperidin-4-yl)-1H-benzo[d]imidazol-4-amine]
Second: Cc1cc(C)nc(Nc2cc(-c3ccc(N4CCN(C(C)C)CC4)cc3)cc3c2nc(C(C)C)n3C)c1 [Example 26, N-(4,6-dimethylpyridin-2-yl)-2-isopropyl-6-(4-(4-isopropylpiperazin-1-yl)phenyl)-1-methyl-1H-benzo[d]imidazol-4-amine]
The IC50 of the first is 2.6-fold higher: 1530 nM for the first, 578 nM for the second.
